Laboratory results from patent publication US20200339625A1, “NOVEL RADIOMETAL-BINDING COMPOUNDS FOR DIAGNOSIS OR TREATMENT OF PROSTATE SPECIFIC MEMBRANE ANTIGEN-EXPRESSING CANCER” (PROVINCIAL HEALTH SERVICES AUTHORITY, priority 2017, published 2020).
Blank lines part the entries; values can stand above or below the molecule they belong to.

What was measured:
[1] = tested on: mice bearing PSMA-expressing LNCAP cancer xenografts; assay: Biodistribution of 68Ga-labeled compounds; assay type: in vivo
Description: (§1) Imaging and biodistribution experiments were performed using NODSCID 1L2RyKO male mice. Mice were anesthetized by inhalation with 2% isoflurane in oxygen, and implanted subcutaneously with 1×10^7 LNCaP cells behind left shoulder. Mice were imaged or used in biodistribution studies when the tumor grew up to reach 5-8 mm in diameter during 5-6 weeks.
For biodistribution studies, the mice were injected with the radiotracer as described above. At predetermined time points (1 or 3 h), the mice was anesthetized with 2% isoflurane inhalation, and euthanized by CO2 inhalation. Blood was withdrawn immediately from the heart, and the organs/tissues of interest were collected. The collected organs/tissues were weighed and counted using an automatic gamma counter. The uptake in each organ/tissue was normalized to the injected dose using a standard curve, and expressed as the percentage of the injected dose per gram of tissue (% ID/g).

[2] = tested on: mice bearing LNCaP tumor xenografts; assay: PET/CT imaging of 68Ga-labeled compounds; assay type: in vivo
Description: 2.17 PET/CT Imaging and Biodistribution
as §1
PET imaging experiments were conducted using Siemens Inveon micro PET/CT scanner. Each tumor bearing mouse was injected 6-8 MBq of 68Ga-labeled tracer through the tail vein under anesthesia (2% isoflurane in oxygen). The mice were allowed to recover and roam freely in their cage. After 50 min, the mice were sedated again with 2% isoflurane in oxygen inhalation and positioned in the scanner. A 10-min CT scan was conducted first for localization and attenuation correction after segmentation for reconstructing the PET images. Then, a 10-min static PET imaging was performed to determined uptake in tumor and other organs. The mice were kept warm by a heating pad during acquisition. For imaging studies acquired at 3 h post-injection (p.i.), the mice were placed in the micro PET/CT scanner at 170 min p.i. Then, the CT acquisitions were conducted as described above, a 15-min static PET imaging was performed to determined uptake in tumor and other organs.

Adrenal glands uptake ([1]; 1 h post-injection): 3.57 ± 1.09 % ID/g
Blood uptake ([1]; 1 h post-injection): 5.73 ± 0.93 % ID/g
Bone uptake ([1]; 1 h post-injection): 0.34 ± 0.08 % ID/g
Brain uptake ([1]; 1 h post-injection): 0.08 ± 0.01 % ID/g
Fat uptake ([1]; 1 h post-injection): 1.36 ± 0.28 % ID/g
Heart uptake ([1]; 1 h post-injection): 1.46 ± 0.27 % ID/g
Intestine uptake ([1]; 1 h post-injection): 0.61 ± 0.10 % ID/g
Kidneys uptake ([1]; 1 h post-injection): 85.8 ± 8.36 % ID/g
Lacrimal uptake ([1]; 1 h post-injection): 0.11 ± 0.06 % ID/g
Liver uptake ([1]; 1 h post-injection): 1.01 ± 0.29 % ID/g
Lungs uptake ([1]; 1 h post-injection): 3.67 ± 0.72 % ID/g
Muscle uptake ([1]; 1 h post-injection): 0.58 ± 0.08 % ID/g
Pancreas uptake ([1]; 1 h post-injection): 0.86 ± 0.09 % ID/g
Salivary uptake ([1]; 1 h post-injection): 2.61 ± 0.59 % ID/g
Seminal uptake ([1]; 1 h post-injection): 1.42 ± 2.17 % ID/g
Spleen uptake ([1]; 1 h post-injection): 3.90 ± 1.57 % ID/g
Stomach uptake ([1]; 1 h post-injection): 0.24 ± 0.05 % ID/g
Tail uptake ([1]; 1 h post-injection): 1.79 ± 0.36 % ID/g
Testes uptake ([1]; 1 h post-injection): 1.03 ± 0.12 % ID/g
Thyroid uptake ([1]; 1 h post-injection): 1.70 ± 0.25 % ID/g
Tumor uptake ([1]; 1 h post-injection): 18.8 ± 3.35 % ID/g
Tumor:Blood ratio ([1]; 1 h post-injection): 3.33 ± 0.75
Tumor:Muscle ratio ([1]; 1 h post-injection): 33.2 ± 7.91
Tumor:kidney ratio ([1]; 1 h post-injection): 0.22 ± 0.03
Urine uptake ([1]; 1 h post-injection): 181 ± 97.2 % ID/g
Adrenal glands uptake ([1]; 3 h post-injection): 1.37 ± 0.48 % ID/g
Blood uptake ([1]; 3 h post-injection): 2.10 ± 0.48 % ID/g
Bone uptake ([1]; 3 h post-injection): 0.13 ± 0.04 % ID/g
Brain uptake ([1]; 3 h post-injection): 0.04 ± 0.01 % ID/g
Fat uptake ([1]; 3 h post-injection): 0.70 ± 0.13 % ID/g
Heart uptake ([1]; 3 h post-injection): 0.52 ± 0.09 % ID/g
Intestine uptake ([1]; 3 h post-injection): 0.39 ± 0.08 % ID/g
Kidneys uptake ([1]; 3 h post-injection): 63.4 ± 16.6 % ID/g
Lacrimal uptake ([1]; 3 h post-injection): 0.04 ± 0.07 % ID/g
Liver uptake ([1]; 3 h post-injection): 0.61 ± 0.08 % ID/g
Lungs uptake ([1]; 3 h post-injection): 1.50 ± 0.26 % ID/g
Muscle uptake ([1]; 3 h post-injection): 0.31 ± 0.08 % ID/g
Pancreas uptake ([1]; 3 h post-injection): 0.35 ± 0.09 % ID/g
Salivary uptake ([1]; 3 h post-injection): 1.03 ± 0.33 % ID/g
Seminal uptake ([1]; 3 h post-injection): 0.21 ± 0.08 % ID/g
Spleen uptake ([1]; 3 h post-injection): 1.05 ± 0.09 % ID/g
Stomach uptake ([1]; 3 h post-injection): 0.16 ± 0.09 % ID/g
Tail uptake ([1]; 3 h post-injection): 0.60 ± 0.15 % ID/g
Testes uptake ([1]; 3 h post-injection): 0.60 ± 0.09 % ID/g
Thyroid uptake ([1]; 3 h post-injection): 0.64 ± 0.10 % ID/g
Tumor uptake ([1]; 3 h post-injection): 28.9 ± 4.27 % ID/g
Tumor:Blood ratio ([1]; 3 h post-injection): 14.2 ± 2.77
Tumor:Muscle ratio ([1]; 3 h post-injection): 95.8 ± 20.9
Tumor:kidney ratio ([1]; 3 h post-injection): 0.48 ± 0.11
Urine uptake ([1]; 3 h post-injection): 141 ± 54.3 % ID/g
change of tumor uptake from 1 h to 3 h post-injection ([2]; PET/CT images): increases over time
excretion pathway ([2]; PET/CT images): excreted mainly by the renal pathway
blood retention (qualitative) ([2]; PET/CT images at 1 h and 3 h post-injection, comparison within the figure): significantly higher blood retention
Structure (SMILES): O=C([O-])CN1CCN(CC(=O)[O-])CCN(CC(=O)NCCCC[C@H](NC(=O)CNC(=O)CCCc2ccc(F)cc2)C(=O)NC[C@H]2CC[C@H](C(=O)N[C@@H](Cc3ccc4ccccc4c3)C(=O)NCCCC[C@H](NC(=O)N[C@@H](CCC(=O)O)C(=O)O)C(=O)O)CC2)CCN(CC(=O)[O-])CC1.[68Ga+3] [^68Ga-HTK03085]

Adrenal glands uptake ([1]; 1 h post-injection): 1.84 ± 0.95 % ID/g
Blood uptake ([1]; 1 h post-injection): 0.70 ± 0.19 % ID/g
Bone uptake ([1]; 1 h post-injection): 0.54 ± 0.20 % ID/g
Brain uptake ([1]; 1 h post-injection): 0.06 ± 0.02 % ID/g
Fat uptake ([1]; 1 h post-injection): 0.45 ± 0.11 % ID/g
Heart uptake ([1]; 1 h post-injection): 0.30 ± 0.06 % ID/g
Intestine uptake ([1]; 1 h post-injection): 0.29 ± 0.06 % ID/g
Kidneys uptake ([1]; 1 h post-injection): 68.5 ± 28.2 % ID/g
Lacrimal uptake ([1]; 1 h post-injection): 1.33 ± 0.90 % ID/g
Liver uptake ([1]; 1 h post-injection): 0.24 ± 0.06 % ID/g
Lungs uptake ([1]; 1 h post-injection): 0.82 ± 0.26 % ID/g
Muscle uptake ([1]; 1 h post-injection): 0.28 ± 0.13 % ID/g
Pancreas uptake ([1]; 1 h post-injection): 0.71 ± 1.04 % ID/g
Salivary uptake ([1]; 1 h post-injection): 0.83 ± 0.22 % ID/g
Seminal uptake ([1]; 1 h post-injection): 0.43 ± 0.31 % ID/g
Spleen uptake ([1]; 1 h post-injection): 1.34 ± 0.54 % ID/g
Stomach uptake ([1]; 1 h post-injection): 0.10 ± 0.03 % ID/g
Tail uptake ([1]; 1 h post-injection): 0.90 ± 0.56 % ID/g
Testes uptake ([1]; 1 h post-injection): 0.35 ± 0.22 % ID/g
Thyroid uptake ([1]; 1 h post-injection): 0.35 ± 0.08 % ID/g
Tumor uptake ([1]; 1 h post-injection): 12.5 ± 2.90 % ID/g
Tumor:Blood ratio ([1]; 1 h post-injection): 18.6 ± 5.54
Tumor:Muscle ratio ([1]; 1 h post-injection): 52.8 ± 24.9
Tumor:kidney ratio ([1]; 1 h post-injection): 0.22 ± 0.15
Urine uptake ([1]; 1 h post-injection): 575 ± 245 % ID/g
excretion pathway ([2]; PET/CT images): excreted mainly via the renal pathway
tumor uptake (qualitative comparison) ([2]; PET/CT images, compounds of FIG. 13): comparable
Structure (SMILES): CCCCCCC(NC(=O)C1CCC(CNC(=O)CN2CCN(CC(=O)[O-])CCN(CC(=O)[O-])CCN(CC(=O)[O-])CC2)CC1)C(=O)NCCCCC(NC(=O)NC(CCC(=O)O)C(=O)O)C(=O)O.[68Ga+3] (centres unmarked) [^68Ga-HTK03026]
